# Experimental data published in the supplement of paper PMC10307832.
# Assays:
# Assay in all cases: relative viability (nuclei count vs DMSO), 5 days (fraction); higher = more cells survive
# [1] = compound: COC1=CC=C(C=C1)CN2C=CC3=C2C=C(C=C3)C(=O)NO + CC1(C)CCC(c2ccc(Cl)cc2)=C(CN2CCN(c3ccc(C(=O)NS(=O)(=O)c4ccc(N[C@H](CCN5CCOCC5)CSc5ccccc5)c(S(=O)(=O)C(F)(F)F)c4)cc3)CC2)C1 [Navitoclax] (partner 0.5 µM)
# How it was run: (§1)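 Relative viability divides the nuclei count in treated wells by that in vehicle wells. Lung cancer cell lines were seeded in 1536-well plates, dosed by pin tool the next day, and fixed and stained after 5 days in one step with final 0.05% Triton X-100, 1% formaldehyde and 1 ug/ml Hoechst. Dosing was a single drug or a fixed anchor-drug dose plus five library-drug doses (not always all listed) in √10 steps, and values are medians of duplicate plates imaged at 4×.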
# [2] = compound: COC1=CC=C(C=C1)CN2C=CC3=C2C=C(C=C3)C(=O)NO + N=C(N)NC(=N)NCCc1ccccc1 [Phenformin] (partner 250 µM)
# How it was run: as §1
# [3] = compound: C[C@]1(c2nc3c(C(N)=O)cccc3[nH]2)CCCN1 [Veliparib] + CCNC(=O)c1noc(-c2cc(C(C)C)c(O)cc2O)c1-c1ccc(CN2CCOCC2)cc1 [Luminespib] (partner 0.01 µM)
# How it was run: as §1
# [4] = compound: C[C@]1(c2nc3c(C(N)=O)cccc3[nH]2)CCCN1 [Veliparib] + Cc1nc(NC(=O)N2CCC[C@H]2C(N)=O)sc1-c1ccnc(C(C)(C)C(F)(F)F)c1 [Alpelisib] (partner 2 µM)
# How it was run: as §1
Cell Line,relative viability ([1]; first compound 0.08 µM),relative viability ([1]; first compound 0.253 µM),relative viability ([1]; first compound 0.8 µM),relative viability ([1]; first compound 2.53 µM),relative viability ([1]; first compound 8 µM),relative viability ([2]; first compound 0.253 µM),relative viability ([2]; first compound 0.8 µM),relative viability ([2]; first compound 2.53 µM),relative viability ([2]; first compound 8 µM),relative viability ([3]; first compound 0.02 µM),relative viability ([3]; first compound 0.06325 µM),relative viability ([3]; first compound 0.2 µM),relative viability ([3]; first compound 0.6325 µM),relative viability ([3]; first compound 2 µM),relative viability ([4]; first compound 0.02 µM),relative viability ([4]; first compound 0.06325 µM),relative viability ([4]; first compound 0.2 µM),relative viability ([4]; first compound 0.6325 µM),relative viability ([4]; first compound 2 µM),relative viability ([2]; first compound 0.08 µM)
NCI-H1793,0.461,0.672,0.479,0.406,0.424,0.457,0.438,0.414,0.368,0.196,0.174,0.177,0.169,0.181,0.819,0.582,0.755,0.661,0.69,
NCI-H1915,0.724,0.778,0.799,0.807,0.781,0.38,0.378,0.359,0.348,0.799,0.6,0.647,0.553,0.596,1.03,1.02,0.976,0.898,0.926,0.348
NCI-H1944,,0.998,1.02,1.08,1.08,0.234,0.195,0.188,0.165,0.698,0.618,0.633,0.613,0.657,0.792,0.849,0.752,0.818,0.756,
NCI-H1975,0.979,1.17,1.26,1.06,1.16,0.417,0.431,0.407,0.399,0.118,0.233,0.142,0.31,0.18,0.64,0.657,0.685,0.605,0.632,0.442
NCI-H1993,0.68,1.02,1.04,1.09,0.991,0.571,0.445,0.477,0.457,0.713,0.675,0.968,0.64,0.895,0.655,0.615,0.726,0.639,0.75,0.512
NCI-H2009,1.23,1.19,1.13,1.18,1.13,0.483,0.482,0.501,0.43,1.03,0.96,1.05,1.05,1.13,1.19,0.994,1.17,1.15,1.23,0.489
NCI-H2023,0.94,1.07,0.946,0.994,0.98,0.409,0.383,0.392,0.299,0.746,0.738,0.696,0.73,0.73,0.629,0.621,0.569,0.502,0.669,0.38
NCI-H2085,0.891,1.04,1.19,1.01,1.08,0.758,0.84,0.722,0.647,,0.438,0.426,0.273,0.447,1.07,0.977,0.843,0.875,0.966,0.739
NCI-H2087,0.974,1.03,1.13,1.08,0.856,0.448,0.442,0.404,0.374,0.167,0.188,0.152,0.14,0.145,1.05,1.02,1.09,1.07,1.04,0.396
NCI-H2126,0.824,0.931,0.849,0.848,0.886,0.52,0.544,0.584,0.517,0.875,0.908,0.839,0.901,0.95,0.76,0.745,0.725,0.655,0.739,0.516
NCI-H2170,0.476,0.669,0.715,0.634,0.509,0.396,0.411,0.419,0.381,0.681,0.865,0.719,0.732,0.6,0.826,0.806,0.931,0.786,0.764,0.407
NCI-H2228,0.955,1.19,1.04,1.1,0.411,0.381,0.3,0.305,0.24,0.141,0.0988,0.145,0.123,0.154,0.818,0.688,0.832,0.623,0.678,
NCI-H2347,0.579,0.883,0.843,0.968,0.762,0.357,0.415,0.525,0.368,0.484,0.54,0.649,0.547,0.427,1.01,0.946,1.01,0.957,1.02,0.382
NCI-H2405,0.534,0.82,0.764,0.775,0.66,0.431,0.39,0.416,0.365,0.695,0.609,0.771,0.666,0.711,,0.776,0.808,0.769,0.817,0.327
NCI-H3122,1.01,1,1.02,1.02,1.03,0.324,0.393,0.382,0.337,0.0959,0.0908,0.097,0.0912,0.0755,0.785,0.755,0.768,0.76,0.752,
PC-3 [JPC-3],0.822,0.831,0.83,0.859,0.74,0.464,0.475,0.495,0.497,0.65,0.711,0.753,0.662,0.66,1.1,0.981,0.959,1.03,0.993,0.5
